Measurements: patent US12576063B2, “Implantable drug delivery devices for localized drug delivery” (priority 2020, dated 2026)

Tests used:
[1] = Solid tissue and prostate gland drug quantification 55 days post-implantation; settings: for liver level: average; for whole prostate gland level: centre transverse section not included; for level in 5 mm punch biopsies surrounding device implants: prostate tissue within ~5 mm of device
Experimental: (§1) In this study, three canines, at least fifteen months old, were employed. […] An 18-gauge brachytherapy needle (OD 1.27 mm) was used for device implantation. Clinical observations and body weight were recorded.
(§2) 55 days post-implantation, study animals were euthanized and underwent gross necropsy. […] Prostate glands were trimmed and cut in three section perpendicular to the urethra: a cranial (rostral) section, a 3-5 mm transverse section, and a caudal section. […] The transverse piece in its entirety was sent for histopathological evaluation.

prostate cancer cells = settings: cited from earlier work
[2] = Plasma drug quantification after implantation of two devices into canine prostate; parameters: species or system canines; settings: male, dog, in vivo
Experimental: Clinical observations and body weight were recorded.
Placement of devices was confirmed by transrectal ultrasound during implantation and 1, 7, 14, and 28 days post-implantation.
Note that the plasma levels as shown in FIGS. 6A and 6B are in micrograms for the oral dose while the scale is in ng/mL for the device plasma levels.

in vivo = settings: male, dog
Experimental: as §1, §2

| time to plasma steady state [2] [days] | concentration at 55 day (in vivo; level in 5 mm punch biopsies surrounding device implants) [ng/g] | concentration at 55 day (in vivo; liver level) [ng/g] | concentration at 55 day (in vivo; whole prostate gland level) [ng/g] | SMILES | liver level [1] [ng/g] | whole prostate gland level [1] [ng/g] | level in 5 mm punch biopsies surrounding device implants [1] [ng/g] | IC50 (prostate cancer cells) [nM] | level in prostate tissue within ~5 mm of the device (molar) [1] [nM] | whole prostate gland level (molar) [1] [nM] |
| --- | --- | --- | --- | --- | --- | --- | --- | --- | --- | --- |
| – | – | – | – | C[C@@](O)(CS(=O)(=O)c1ccc(F)cc1)C(=O)Nc1ccc(C#N)c(C(F)(F)F)c1 [S-bicalutamide] | 19 ± 7 | 87 ± 11 | 727 ± 259 | – | – | – |
| – | – | – | – | C[C@](O)(CS(=O)(=O)c1ccc(F)cc1)C(=O)Nc1ccc(C#N)c(C(F)(F)F)c1 [R-bicalutamide] | 28 ± 9 | 86 ± 10 | 698 ± 242 | ~1000 | 1623 ± 562 | 196.6 ± 23.5 |
| ~4 | 1430 ± 501 | 47 ± 16 | 172 ± 21 | CC(O)(CS(=O)(=O)c1ccc(F)cc1)C(=O)Nc1ccc(C#N)c(C(F)(F)F)c1 (stereo not shown) [bicalutamide] | – | – | – | – | – | – |
